Assay results reported in patent US20250304623A1, “PEPTIDES FOR INTRACELLULAR DELIVERY” (UNIVERSIDADE DE SANTIAGO DE COMPOSTELA, priority 2022, published 2025).
*: point of attachment. NHNH2 = NN*

How the values were obtained:
Assay type in all cases: cell-based
A549 cells = test: RLuc pDNA delivery, robotic library screening, A549
Outline: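 A549 cells in DMEM+10% FBS were washed twice with PBS and exposed for 4 h to amphiphile/RLuc pDNA complexes prepared from DMSO stocks diluted in DMEM. After medium replacement and 72 hours, cells in HBSS were incubated at 37° C. for 30 minutes, basal then total luminescence measured after 5 μM coelenterazine h; background from untransfected cells was subtracted.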

Hela cells = test: RLuc pDNA delivery, robotic library screening, HeLa
[1] = test system: ARPE19 cells expressing EGFP; test: EGFP-targeting siRNA delivery (GFP silencing vs siMOCK), ARPE19
Protocol: (§1) To generate an EGFP expressing HeLa cell line, HeLa cells were transfected with EGFP pDNA (pEGFP-C1, Clontech) and stable transfectants were selected with 400 μg/mL of G-418 (Millipore). Green clones were selected by epifluorescence microscopy and tested for EGFP expression stability through several passages. […] All other EGFP-expressing cell lines were obtained in a similar way from parent non-EGFP-expressing cell lines.
(§2) Cells expressing EGFP were seeded in a 96 well plate the day before the experiment at a concentration of 50,000 cell/mL (100 μL/w) in DMEM+10% FBS+1% Gln-Abt. For robotic library screening, the delivery of an EGFP-targeting siRNA (EGFP: enhanced green fluorescent protein, Ambion® Silencer® GFP Positive Control siRNA (siGFP) (AM4626)) in six different cell lines expressing EGFP was performed. […] The mixture was shaken for 30 min at room temperature (rt) before the addition to the cells. The cell medium was aspirated, and cells were washed twice with PBS. Finally, 50 μL of the solution of siRNA/amphiphile complexes were added to the cells and incubated for 4 h. After transfection, the medium was replaced by 100 μL of fresh DMEM supplemented with 10% FBS. The fluorescence knockdown was quantified after 72 h in a plate reader, by comparison with cells transfected with a non-targeting siRNA control (siMOCK, Silencer™ Negative Control No. 1 siRNA (siMOCK) (AM4611)). EGFP knockdown was compared with Lipofectamine® RNAiMAX silencing efficiency (30-60% depending on cell line, defined with a numeric value in the below tables). All experiments were done in triplicate.
(§3) Tables 1-7: RLuc (pDNA) or EGFP (mRNA) expression levels were normalized to Lipofectamine reagents (value=1) and expressed as fold-times signal increase. In the case of siRNA, the siRNA treated cells fluorescence was compared with siMOCK control fluorescence, while Cas9-RNP mediated knockout was measured against the fluorescence of untreated cells. In both siRNA and Cas9-RNP, values are expressed as % fluorescence reduction. Amphiphile concentration was 5 μM in all cases. All experiments were performed in triplicate.
(§4) Tables 20-25 show the mean (triplicates) percentage of GFP-silencing, accounted by fluorescence intensity decrease relative to a non-targeting siRNA (siMOCK) control, measured after the transfection of siRNA by different amphiphiles at different concentrations in a variety of cell lines. Background values, accounted by untreated control cells, were subtracted for processing.

[2] = test system: Hek293 cells expressing EGFP; test: EGFP-targeting siRNA delivery (GFP silencing vs siMOCK), Hek293
Protocol: as §1, §2, §3, §4

## Ac-RK*LRRK*LRK*-NH2 (Ac-RK(NHNH2)LRRK(NHNH2)LRK(NHNH2)-NH2; not fully specified; printed as Ac-RK*LRRK*LRK*-NH2; also: K*2,K*6,K*9: native or modified lysine (ε-amide to a linker)) [Peptide 9.3]
A549 cells; Dodecanal, 10 μM
  mean luminescent intensity (RLuc pDNA): 2898 RLU
A549 cells; Myristoleyl, 5 μM
  mean luminescent intensity (RLuc pDNA): 23125 RLU
A549 cells; Myristoleyl, 10 μM
  mean luminescent intensity (RLuc pDNA): 32698 RLU
A549 cells; Myristoleyl, 15 μM
  mean luminescent intensity (RLuc pDNA): 6504 RLU
A549 cells; Oleyl, 10 μM
  mean luminescent intensity (RLuc pDNA): 1117 RLU
A549 cells; Oleyl, 15 μM
  mean luminescent intensity (RLuc pDNA): 1433 RLU
A549 cells; Palmitoleyl, 10 μM
  mean luminescent intensity (RLuc pDNA): 5800 RLU
A549 cells; Palmitoleyl, 15 μM
  mean luminescent intensity (RLuc pDNA): 9967 RLU
A549 cells; Petroselinyl, 10 μM
  mean luminescent intensity (RLuc pDNA): 4167 RLU
A549 cells; Petroselinyl, 15 μM
  mean luminescent intensity (RLuc pDNA): 5514 RLU
Hela cells; HeLa, Petroselinyl, 10 μM
  mean luminescent intensity (RLuc pDNA): 1228 RLU
Hela cells; Hela, Dodecanal, 10 μM
  mean luminescent intensity (RLuc pDNA): 70716 RLU
Hela cells; Hela, Dodecanal, 15 μM
  mean luminescent intensity (RLuc pDNA): 303962 RLU
Hela cells; Hela, Myristoleyl, 5 μM
  mean luminescent intensity (RLuc pDNA): 3600 RLU
Hela cells; Hela, Myristoleyl, 10 μM
  mean luminescent intensity (RLuc pDNA): 18554 RLU
Hela cells; Hela, Myristoleyl, 15 μM
  mean luminescent intensity (RLuc pDNA): 4014 RLU
Hela cells; Hela, Oleyl, 10 μM
  mean luminescent intensity (RLuc pDNA): 5404 RLU
Hela cells; Hela, Oleyl, 15 μM
  mean luminescent intensity (RLuc pDNA): 1759 RLU
Hela cells; Hela, Palmitoleyl, 10 μM
  mean luminescent intensity (RLuc pDNA): 940 RLU
Hela cells; Hela, Palmitoleyl, 15 μM
  mean luminescent intensity (RLuc pDNA): 22617 RLU
Hela cells; Hela, Petroselinyl, 5 μM
  mean luminescent intensity (RLuc pDNA): 1035 RLU
Hela cells; Hela, Petroselinyl, 15 μM
  mean luminescent intensity (RLuc pDNA): 14602 RLU
[1]; Dodecanal, 5 μM
  percentage of GFP-silencing relative to siMOCK: 57%
[1]; Dodecanal, 10 μM
  percentage of GFP-silencing relative to siMOCK: 57%
[1]; Dodecanal, 15 μM
  percentage of GFP-silencing relative to siMOCK: 34%
[1]; Myristoleyl, 5 μM
  percentage of GFP-silencing relative to siMOCK: 47%
[1]; Oleyl, 5 μM
  percentage of GFP-silencing relative to siMOCK: 20%
[1]; Oleyl, 10 μM
  percentage of GFP-silencing relative to siMOCK: 55%
[1]; Oleyl, 15 μM
  percentage of GFP-silencing relative to siMOCK: 51%
[1]; Palmitoleyl, 5 μM
  percentage of GFP-silencing relative to siMOCK: 51%
[1]; Palmitoleyl, 10 μM
  percentage of GFP-silencing relative to siMOCK: 30%
[1]; Palmitoleyl, 15 μM
  percentage of GFP-silencing relative to siMOCK: 11%
[1]; Petroselinyl, 5 μM
  percentage of GFP-silencing relative to siMOCK: 18%
[1]; Petroselinyl, 10 μM
  percentage of GFP-silencing relative to siMOCK: 49%
[1]; Petroselinyl, 15 μM
  percentage of GFP-silencing relative to siMOCK: 52%
[2]; Dodecanal, 5 μM
  percentage of GFP-silencing relative to siMOCK: 19%
[2]; Dodecanal, 15 μM
  percentage of GFP-silencing relative to siMOCK: 40%
[2]; Myristoleyl, 10 μM
  percentage of GFP-silencing relative to siMOCK: 10%
[2]; Myristoleyl, 15 μM
  percentage of GFP-silencing relative to siMOCK: 43%
[2]; Oleyl, 15 μM
  percentage of GFP-silencing relative to siMOCK: 28%
[2]; Palmitoleyl, 10 μM
  percentage of GFP-silencing relative to siMOCK: 17%
[2]; Palmitoleyl, 15 μM
  percentage of GFP-silencing relative to siMOCK: 36%
[2]; Petroselinyl, 10 μM
  percentage of GFP-silencing relative to siMOCK: 3%
[2]; Petroselinyl, 15 μM
  percentage of GFP-silencing relative to siMOCK: −12%

## Ac-RK*LRRLLRK*-NH2 (Ac-RK(NHNH2)LRRLLRK(NHNH2)-NH2; not fully specified; printed as Ac-RK*LRRLLRK*-NH2; also: K*2,K*9: native or modified lysine (ε-amide to a linker)) [Peptide 9.2]
A549 cells; Dodecanal, 10 μM
  mean luminescent intensity (RLuc pDNA): 1215 RLU
A549 cells; Myristoleyl, 5 μM
  mean luminescent intensity (RLuc pDNA): 10365 RLU
A549 cells; Myristoleyl, 10 μM
  mean luminescent intensity (RLuc pDNA): 3358 RLU
A549 cells; Myristoleyl, 15 μM
  mean luminescent intensity (RLuc pDNA): 1684 RLU
Hela cells; Hela, Dodecanal, 10 μM
  mean luminescent intensity (RLuc pDNA): 13156 RLU
Hela cells; Hela, Dodecanal, 15 μM
  mean luminescent intensity (RLuc pDNA): 11603 RLU
Hela cells; Hela, Myristoleyl, 5 μM
  mean luminescent intensity (RLuc pDNA): −600 RLU
Hela cells; Hela, Myristoleyl, 10 μM
  mean luminescent intensity (RLuc pDNA): −701 RLU
Hela cells; Hela, Myristoleyl, 15 μM
  mean luminescent intensity (RLuc pDNA): −707 RLU
[1]; Dodecanal, 5 μM
  percentage of GFP-silencing relative to siMOCK: 13%
[1]; Dodecanal, 10 μM
  percentage of GFP-silencing relative to siMOCK: 34%
[1]; Dodecanal, 15 μM
  percentage of GFP-silencing relative to siMOCK: 30%
[1]; Myristoleyl, 5 μM
  percentage of GFP-silencing relative to siMOCK: 24%
[2]; Dodecanal, 5 μM
  percentage of GFP-silencing relative to siMOCK: 14%
[2]; Dodecanal, 15 μM
  percentage of GFP-silencing relative to siMOCK: 3%
[2]; Myristoleyl, 10 μM
  percentage of GFP-silencing relative to siMOCK: 10%
[2]; Myristoleyl, 15 μM
  percentage of GFP-silencing relative to siMOCK: −1%
